Consider 19 molecules from US10844027B2, “Carboxylic diarylthiazepineamines as mu-opioid receptor agonists” (THE TRUSTEES OF COLUMBIA UNIVERSITY IN THE CITY OF NEW YORK, priority 2015, dated 2020).

The structures appear in SMILES notation. Where a name gives a salt, the structure may show the parent alone.

Data set [1] concerns the target T1, human mu-opioid receptor (MOR) (Homo sapiens, UniProt P35372).
T1 construct: expressed in transfected cells; host or cells: HEK-293T
The experiment in a line: BRET assay measuring G protein activation, agonist activity at human MOR. The data set is classed as cell-based. The procedure:
After 24 hours the media was changed, and the experiment was performed 24 hours later (48 hours after transfection).
Transfected cells were dissociated and re-suspended in phosphate-buffered saline (PBS). […] The microplate was centrifuged and the cells were re-suspended in PBS. Then 5 μM of the luciferase substrate coelenterazine H was added to each well for 5 minutes. Following coelenterazine H addition, ligands were added and the BRET signal was measured at 5 minutes on a PHERAstar FS plate reader. Quantification of the BRET signal required calculating the ratio of the light emitted by the energy acceptor, mVenus (510-540 nm), over the light emitted by the energy donor, RLuc8 (485 nm). […] Dose response curves were fit using a three-parameter logistics equation in GraphPad Prism 6.

Data set [2] addresses T2, human delta-opioid receptor (DOR) (Homo sapiens, UniProt P41143).
T2 construct: expressed in transfected cells; host or cells: HEK-293T
The experiment in a line: BRET assay measuring G protein activation, agonist activity at human DOR. The data set is classed as cell-based. The procedure:
The diarylthiazepinamine esters (6) and carboxylic acids (7) were tested for agonist activity at the human mu-opioid receptor (MOR) and delta-opioid receptor (DOR) using bioluminescence resonance energy transfer (BRET) assays measuring G protein activation as previously described (Table 1) (Rives, M.-L. et al. 2012; Negri, A. et al. 2013).
Human MOR or DOR cDNA was transfected alongside GαoB with RLuc8 inserted at position 91 (GαoB—RLuc8), Gβ1 (β1), and Gγ2 fused to the full-length mVenus at its N terminus (mVenus-γ2) into HEK-293T cells (5×10^6 cells/plate) in 10-cm dishes using PEI (Polysciences Inc.; Warrington, Pa.) in a 1:1 ratio diluted in Opti-MEM (Life Technologies Corp.; Grand Island, N.Y.) to assay for G protein activation as described previously (Rives, M.-L. et al. 2012; Negri, A. et al. 2013). Cells were maintained in Dulbecco's Modified Eagle Medium (high glucose #11965; Life Technologies) supplemented with 10% FBS (Premium Select, Atlanta Biologicals; Atlanta, Ga.) and 100 U/mL penicillin and 100 μg/mL streptomycin (#15140, Life Technologies). After 24 hours the media was changed, and the experiment was performed 24 hours later (48 hours after transfection).
Transfected cells were dissociated and re-suspended in phosphate-buffered saline (PBS). Approximately 200,000 cells/well were added to a black-framed, white well 96-well plate (#60050; Perkin Elmer; Waltham, Mass.). The microplate was centrifuged and the cells were re-suspended in PBS. Then 5 μM of the luciferase substrate coelenterazine H was added to each well for 5 minutes. Following coelenterazine H addition, ligands were added and the BRET signal was measured at 5 minutes on a PHERAstar FS plate reader. Quantification of the BRET signal required calculating the ratio of the light emitted by the energy acceptor, mVenus (510-540 nm), over the light emitted by the energy donor, RLuc8 (485 nm). […] Dose response curves were fit using a three-parameter logistics equation in GraphPad Prism 6.
In general terms: BRET reads energy transfer from a luciferase to a nearby fluorophore.

A short description of data set [3]: Brain pharmacokinetics of tianeptine and its 5-carbon metabolite (7i) in mice. The procedure: Brain samples were collected from three mice at 0.08, 0.25, 0.5, 1, 2, 4, 8 and 24 h, homogenized using ice-cold phosphate buffer saline (pH 7.4), and stored below −70° C. until analysis. Total homogenate volume was three times the tissue weight. All samples were processed for analysis by protein precipitation using acetonitrile (ACN) and analyzed with a fit-for-purpose LC/MS/MS method (LLOQ—1.01 ng/mL in brain). Pharmacokinetic parameters were calculated using the non-compartmental analysis tool of Phoenix WinNonlin® (Version 6.3).

Where [4] appears, read: brain, C57BL/6 mice, single injection (30 mg/kg, i.p.) of tianeptine.
[5] abbreviates: brain, mice, after tianeptine 30 mg/kg i.p.
Setting [6] is: male, C57BL/6, mouse, in vivo, ip, 30 mg/kg.

T2 sequence (P41143 whole entry): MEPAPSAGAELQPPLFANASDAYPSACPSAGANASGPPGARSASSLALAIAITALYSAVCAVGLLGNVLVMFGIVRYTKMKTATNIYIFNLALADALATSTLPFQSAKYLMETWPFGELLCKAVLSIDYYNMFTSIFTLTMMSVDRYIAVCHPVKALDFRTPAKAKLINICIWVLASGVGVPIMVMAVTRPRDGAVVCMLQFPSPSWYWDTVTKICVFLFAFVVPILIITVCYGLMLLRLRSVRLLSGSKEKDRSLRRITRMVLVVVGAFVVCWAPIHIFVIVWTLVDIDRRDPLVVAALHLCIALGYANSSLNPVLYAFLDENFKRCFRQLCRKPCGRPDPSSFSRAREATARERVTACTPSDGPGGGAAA
T1 sequence (P35372 whole entry): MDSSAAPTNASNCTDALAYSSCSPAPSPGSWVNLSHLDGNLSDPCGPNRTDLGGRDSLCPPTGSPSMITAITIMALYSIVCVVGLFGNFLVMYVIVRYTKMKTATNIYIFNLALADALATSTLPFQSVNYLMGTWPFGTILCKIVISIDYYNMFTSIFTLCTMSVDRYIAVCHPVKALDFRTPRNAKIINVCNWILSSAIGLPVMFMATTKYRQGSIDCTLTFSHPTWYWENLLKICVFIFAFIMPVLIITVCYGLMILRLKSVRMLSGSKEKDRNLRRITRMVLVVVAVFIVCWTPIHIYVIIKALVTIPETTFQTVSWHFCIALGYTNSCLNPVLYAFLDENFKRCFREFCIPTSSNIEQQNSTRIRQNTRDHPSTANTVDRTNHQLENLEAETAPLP

Broadly, the EC50 is the concentration giving half of the maximal effect. A high value points to a less potent agent. For the molecule `CCOC(=O)CCNC1c2ccccc2N(C)S(=O)(=O)c2cc(Br)ccc21` (stereo not shown) [Compound 6a, Ethyl 3-((3-bromo-6-methyl-5,5-dioxido-6,11l-dihydrodibenzo[c,f][1,2]thiazepin-11-yl)amino)propanoate], the EC50 in data set [1] is 5.9 ± 1 µM; in data set [2] it was greater than 10 µM.
With `CCOC(=O)CCNC1c2ccccc2N(C)S(=O)(=O)c2cc(I)ccc21` (stereo not shown) [Compound 6b, Ethyl 3-((3-iodo-6-methyl-5,5-dioxido-6,11-dihydrodibenzo[c,f][1,2]thiazepin-11-yl)amino)propanoate], the EC50 in data set [1] was 1.6 ± 0.2 µM; in data set [2] it was greater than 10 µM.
On the same counts, the results for `CCOC(=O)CCCNC1c2ccccc2N(C)S(=O)(=O)c2cc(Br)ccc21` (stereo not shown) [Compound 6c, Ethyl 4-((3-bromo-6-methyl-5,5-dioxido-6,11-dihydrodibenzo[c,f][1,2]thiazepin-11-yl)amino)butanoate] are 0.27 ± 0.038 µM and greater than 10 µM.
`CCOC(=O)CCCCNC1c2ccccc2N(C)S(=O)(=O)c2cc(Br)ccc21` (stereo not shown) [Compound 6d, Ethyl 5-((3-bromo-6-methyl-5,5-dioxido-6,11-dihydrodibenzo[c,f][1,2]thiazepin-11-yl)amino)pentanoate] yielded an EC50 in data set [1] of 0.12 µM.
Regarding `CCOC(=O)CCCCNC1c2ccccc2N(C)S(=O)(=O)c2cc(I)ccc21` (stereo not shown) [Compound 6e, Ethyl 5-((3-iodo-6-methyl-5,5-dioxido-6,11-dihydrodibenzo[c,f][1,2]thiazepin-11-yl)amino)pentanoate], the EC50 in data set [1] turned out to be 0.0282 ± 0.0032 µM; in data set [2] it was 6.8 ± 0.03 µM.
The corresponding values for `CCOC(=O)CCCCCNC1c2ccccc2N(C)S(=O)(=O)c2cc(Br)ccc21` (stereo not shown) [Compound 6f, Ethyl 6-((3-bromo-6-methyl-5,5-dioxido-6,11-dihydrodibenzo[c,f][1,2]thiazepin-11-yl)amino)hexanoate] are 0.0908 ± 0.0314 µM and 11.7 ± 0.06 µM.
On the same counts, the results for `CCOC(=O)CCCCCNC1c2ccccc2N(C)S(=O)(=O)c2cc(I)ccc21` (stereo not shown) [Compound 6g, Ethyl 6-((3-iodo-6-methyl-5,5-dioxido-6,11l-dihydrodibenzo[c,f][1,2]thiazepin-11-yl)amino)hexanoate] are 0.0485 ± 0.0049 µM and 8.5 ± 6.3 µM.
The corresponding values for `CCOC(=O)CCCCNC1c2ccccc2N(C)S(=O)(=O)c2cc(Cl)ccc21` (stereo not shown) [Compound 6i, Ethyl 5-((3-chloro-6-methyl-5,5-dioxido-6,11-dihydrodibenzo[c,f][1,2]thiazepin-11-yl)amino)pentanoate] are 0.533 ± 0.267 µM and greater than 10 µM.
Turning to `CCOC(=O)CCCCCNC1c2ccccc2N(C)S(=O)(=O)c2cc(Cl)ccc21` (stereo not shown) [Compound 6j, Ethyl 6-((3-chloro-6-methyl-5,5-dioxido-6,11-dihydrodibenzo[c,f][1,2]thiazepin-11-yl)amino)hexanoate], the EC50 in data set [1] was determined as 0.318 ± 0.162 µM; in data set [2] it was 13.9 ± 4.8 µM.
Turning to `CN1c2ccccc2C(NCCC(=O)O)c2ccc(Br)cc2S1(=O)=O` (stereo not shown) [Compound 7a, 3-((3-Bromo-6-methyl-5,5-dioxido-6,1-dihydrodibenzo[c,f][1,2]thiazepin-11-yl)amino)propanoic acid hydrochloride salt], the EC50 in data set [1] is 4.7 ± 1.4 µM; in data set [2] it was greater than 10 µM.
On the same counts, the results for `CN1c2ccccc2C(NCCC(=O)O)c2ccc(I)cc2S1(=O)=O` (stereo not shown) [Compound 7b, 3-((3-Iodo-6-methyl-5,5-dioxido-6,11-dihydrodibenzo[c,f][1,2]thiazepin-11-yl)amino) propanoic acid hydrochloride salt] are 1.2 ± 0.3 µM and greater than 10 µM.
`CN1c2ccccc2C(NCCCC(=O)O)c2ccc(Br)cc2S1(=O)=O` (stereo not shown) [Compound 7c, 4-((3-Bromo-6-methyl-5,5-dioxido-6,11-dihydrodibenzo[c,f][1,2]thiazepin-11-yl)amino)butanoic acid hydrochloride salt]: the EC50 in data set [1] is 2 ± 0.3 µM; in data set [2], greater than 10 µM.
Take `CN1c2ccccc2C(NCCCCC(=O)O)c2ccc(Br)cc2S1(=O)=O` (stereo not shown) [Compound 7d, 5-((3-Bromo-6-methyl-5,5-dioxido-6,11-dihydrodibenzo[c,f][1,2]thiazepin-11-yl)amino)pentanoic acid hydrochloride salt]: the results for the EC50 in data set [1] and in data set [2] were 0.405 µM and greater than 10 µM, respectively.
The corresponding values for `CN1c2ccccc2C(NCCCCC(=O)O)c2ccc(I)cc2S1(=O)=O` (stereo not shown) [Compound 7e, 5-((3-Iodo-6-methyl-5,5-dioxido-6,11-dihydrodibenzo[c,f][1,2]thiazepin-11-yl)amino)pentanoic acid hydrochloride salt] are 0.0183 ± 0.0002 µM and 8.9 ± 0.007 µM.
On the same counts, the results for `CN1c2ccccc2C(NCCCCCC(=O)O)c2ccc(Br)cc2S1(=O)=O` (stereo not shown) [Compound 7f, 6-((3-Bromo-6-methyl-5,5-dioxido-6,11-dihydrodibenzo[c,f][1,2]thiazepin-11-yl)amino)hexanoic acid hydrochloride salt] are 0.133 ± 0.0132 µM and 23.7 ± 1.5 µM.
The corresponding values for `CN1c2ccccc2C(NCCCCCC(=O)O)c2ccc(I)cc2S1(=O)=O` (stereo not shown) [Compound 7g, 6-((3-Iodo-6-methyl-5,5-dioxido-6,11-dihydrodibenzo[c,f][1,2]thiazepin-11-yl)amino)hexanoic acid hydrochloride salt] are 0.0243 ± 0.0045 µM and 5.1 ± 1.4 µM.
As for `CN1c2ccccc2C(NCCC(=O)O)c2ccc(Cl)cc2S1(=O)=O` (stereo not shown) [Compound 7h, 3-((3-Chloro-6-methyl-5,5-dioxido-6,11-dihydrodibenzo[c,f][1,2]thiazepin-11-yl)amino)propanoic acid hydrochloride salt], the EC50 in data set [1] was 24.9 ± 12.6 µM; in data set [2] it was greater than 10 µM.
The Cmax is the maximum level reached in the sampled fluid or tissue. Usually Tmax stands for the time from dosing to the highest level. As usually defined, the half-life is the time in which the quantity being followed falls by half. The molecule `CN1c2ccccc2C(NCCCCC(=O)O)c2ccc(Cl)cc2S1(=O)=O.Cl` (stereo not shown) [Compound 7i, 5-((3-Chloro-6-methyl-5,5-dioxido-6,11-dihydrodibenzo[c,f][1,2]thiazepin-11-yl)amino)pentanoic acid hydrochloride salt] gave an EC50 in data set [1] of 0.361 ± 0.0929 µM. For the same molecule, the EC50 in data set [2] was greater than 10 µM. Besides, in data set [3] (setting [4]), the AUClast worked out at 5963 ng·h/g and the CL came to 78 mL/min/kg. In addition, in data set [3] (setting [5]), the “brain exposure (as measured by AUC) compared to the parent compound (tianeptine)” value is given as “greater” and the “half-life compared to the parent compound (tianeptine)” value was “significantly longer”. For the same molecule, in data set [3] (setting [6]), the Cmax is 2860 ng/g, the Tmax came out at 0.5 h and the half-life is 2.33 h.
For `CN1c2ccccc2C(NCCCCCCC(=O)O)c2ccc(Cl)cc2S1(=O)=O` (stereo not shown) [Tianeptine, tianeptine, reference compound], in data set [2], the EC50 turned out to be 37.4 ± 11.2 µM.
